Reference: PubChem BioAssay (NCI)
Where “and” joins values, the source holds several entries; their conditions need not be identical. Identical values can stand only once.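 Briefly, cells in 96-well plates were exposed to five compound concentrations for 48 h, and endpoints were estimated by linear interpolation. At the GI50, growth is halved. Definition used: TGI = concentration required for complete inhibition of growth.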

Assays:
Experiment in all cases: NCI anticancer screen, dose series, 48 h
SNB-19 CNS = test system: SNB-19 CNS
NCI-H522 lung = test system: NCI-H522 lung
HOP-62 NSCLC = test system: HOP-62 NSCLC
HCC-2998 colon = test system: HCC-2998 colon
HCT-15 colon = test system: HCT-15 colon
HOP-92 NSCLC = test system: HOP-92 NSCLC
HCT-116 colon = test system: HCT-116 colon
SR leukemia = test system: SR leukemia
ACHN renal = test system: ACHN renal
SF-539 CNS = test system: SF-539 CNS

Compound	GI50 (SNB-19 CNS)	TGI (SNB-19 CNS)	GI50 (NCI-H522 lung)	TGI (NCI-H522 lung)	GI50 (HOP-62 NSCLC)	TGI (HOP-62 NSCLC)	GI50 (HCC-2998 colon)	TGI (HCC-2998 colon)	GI50 (HCT-15 colon)	TGI (HCT-15 colon)	GI50 (HOP-92 NSCLC)	TGI (HOP-92 NSCLC)	GI50 (HCT-116 colon)	TGI (HCT-116 colon)	GI50 (SR leukemia)	TGI (SR leukemia)	GI50 (ACHN renal)	TGI (ACHN renal)	GI50 (SF-539 CNS)	TGI (SF-539 CNS)
CC[C@@H]1C(=O)N(C)c2cnc(Nc3ccc(C(=O)NC4CCC(N5CCN(CC6CC6)CC5)CC4)cc3OC)nc2N1C(C)C (some centres not stated)	0.0356 µM and 0.0566 µM	> 10 µM and 18 µM	0.00462 µM and < 0.0115 µM	0.0822 µM and 0.0564 µM	0.0208 µM and 0.034 µM	> 8.64 µM and 3.93 µM	0.0289 µM and 0.0374 µM	> 4.12 µM and 2.83 µM	0.0686 µM and 0.145 µM	> 6.64 µM and 5.33 µM	0.0441 µM and 0.0596 µM	> 2.9 µM and 5.99 µM	0.0136 µM and 0.022 µM	> 3.83 µM and 1.68 µM	0.0134 µM and 0.0123 µM	1.32 µM and 1.51 µM	0.305 µM and 0.222 µM	> 10 µM and 13.6 µM	0.0409 µM and 0.0372 µM	1.36 µM and 1.48 µM
N#CSc1c[nH]c2ccc(/C=C/C(=O)/C=C(O)/C=C/c3ccc4[nH]cc(SC#N)c4c3)cc12	3.25 µM	15.5 µM	0.886 µM	2.79 µM	3.82 µM	19.8 µM	3.82 µM	16.6 µM	0.416 µM	2.11 µM	1.63 µM	4.46 µM	0.296 µM	1.19 µM	0.505 µM	6.14 µM	0.568 µM	3.3 µM	2.87 µM	10.6 µM
OC(c1ccccc1)c1c(-c2ccccc2)[nH]c(-c2ccccc2)c1C(O)c1ccccc1 (configuration not stated)		23.4 µM		11.5 µM		17.5 µM		22.4 µM		40.1 µM		5.46 µM		8.83 µM		8.25 µM		11.9 µM		6.94 µM
COc1cccc2c1C(=O)c1c(O)c3c(c(O)c1C2=O)C[C@@](O)(/C(C)=N/NC(=O)c1cccc([N+](=O)[O-])c1)C[C@@H]3OC1CC(N)C(O)C(C)O1 (some centres not stated)	0.291 µM	12 µM	0.494 µM	5.96 µM	0.283 µM	4.41 µM	0.326 µM	2.77 µM	1.57 µM	14.2 µM	0.201 µM	4.71 µM	0.131 µM	5.25 µM	0.0155 µM		0.205 µM	1.65 µM	0.21 µM	1.22 µM
O=c1[nH]c(=O)n(Cc2ccc(C34CC5CC(CC(C5)C3)C4)c(O)c2)cc1F	15.6 µM	34 µM	13.1 µM	31.9 µM	14.6 µM	31.4 µM	14.5 µM	28.1 µM	10.2 µM	22.3 µM	13.5 µM	26.4 µM	13.3 µM	28.5 µM	5.32 µM	19.9 µM	12.5 µM	25.2 µM	14.7 µM	30.1 µM
Clc1cccc(-c2cc(-c3ccc4c(c3)OCCO4)[nH]n2)c1	21.6 µM	59.3 µM	1.48 µM	37.2 µM	2.39 µM	41.6 µM	7.26 µM	51.4 µM	1.11 µM	33.5 µM	7.74 µM	42.8 µM	5.96 µM	40.3 µM	0.988 µM	98.3 µM	9.69 µM	41 µM	6.31 µM	36.1 µM
CN1CCC2(CC1)C(=O)Nc1cc(NC(=O)c3ccc4c(c3)C[C@@H]3C(C)(C)[C@H](O)[C@H](F)C[C@@]3(C)O4)ccc12	1.97 µM	22 µM	10.8 µM	33.2 µM	1.04 µM	23 µM	14.2 µM	48.3 µM	11 µM	45.8 µM	1.97 µM	31.1 µM	1.35 µM	17.2 µM	0.0514 µM	88.2 µM	8.59 µM	> 100 µM	0.0565 µM	15.9 µM
O=c1c(-c2cccc3ccccc23)c(-c2cccc3ccccc23)c1=O		61 µM		3.12 µM		49.1 µM		4.95 µM		> 52.9 µM		39.4 µM		37.6 µM		> 32 µM		> 100 µM		4.75 µM
C/C(=C1\C(=O)Nc2ccccc21)c1cccc(/C(C)=C2/C(=O)Nc3ccccc32)n1	23.1 µM	> 100 µM	9.59 µM	99.5 µM	15.5 µM	74.1 µM	2.38 µM	5.7 µM	4.21 µM	34.9 µM	15.7 µM	85.3 µM	9.93 µM	> 100 µM	4.96 µM	> 100 µM	8.56 µM	48.1 µM	2.49 µM	7.99 µM
CCC(=O)N1C(=S)SC[C@H]1C(=O)OC		> 100 µM		> 100 µM		> 100 µM		> 100 µM				> 100 µM		> 100 µM		> 100 µM		> 100 µM		> 100 µM
O=C1CN=C(c2ccccc2)c2ccncc2N1		> 100 µM		> 100 µM		> 100 µM		> 100 µM				> 100 µM		> 100 µM		> 100 µM		> 100 µM		> 100 µM
